Measurements taken from patent US8367087B2, “Soil amendment compositions and methods for using the same” (priority 1998, dated 2013).

Test system: J2 larvae of the Root Knot Nematode (Meloidogyne incognita)
Assay: Touch response of J2 larvae after 24 hours exposure to predisposing agents
Format: in vivo
Description: The merits of alternative predisposing agents were examined by subjecting J2 larvae of the Root Knot Nematode (Meloidogyne incognita) to solutions of lignosulfonate and gallic acid. J2 larvae were exposed 24 hours to various concentrations of the materials in shallow 50 ml beakers. Following exposure, nematodes were inspected for activity level using touch response: […]

O=C(O)c1cc(O)c(O)c(O)c1 [Gal Ac, Gallic Acid]
Control % (5 ppm): 30.7% | active, responding nematodes per total examined (viable/total), Mean (5 ppm): 312/450 | active, responding nematodes per total examined (viable/total), Replication 1 (5 ppm): 305/462 | active, responding nematodes per total examined (viable/total), Replication 2 (5 ppm): 316/440 | active, responding nematodes per total examined (viable/total), Replication 3 (5 ppm): 326/447 | active, responding nematodes per total examined (viable/total), Replication 4 (5 ppm): 302/450 | active, responding nematodes per total examined (viable/total), Total (5 ppm): 1249/1799 | Control % (25 ppm): 47.7% | active, responding nematodes per total examined (viable/total), Mean (25 ppm): 239/457 | active, responding nematodes per total examined (viable/total), Replication 1 (25 ppm): 250/458 | active, responding nematodes per total examined (viable/total), Replication 2 (25 ppm): 248/449 | active, responding nematodes per total examined (viable/total), Replication 3 (25 ppm): 232/459 | active, responding nematodes per total examined (viable/total), Replication 4 (25 ppm): 225/462 | active, responding nematodes per total examined (viable/total), Total (25 ppm): 955/1828 | Control % (100 ppm): 60.9% | active, responding nematodes per total examined (viable/total), Mean (100 ppm): 176/450 | active, responding nematodes per total examined (viable/total), Replication 1 (100 ppm): 193/450 | active, responding nematodes per total examined (viable/total), Replication 2 (100 ppm): 185/448 | active, responding nematodes per total examined (viable/total), Replication 3 (100 ppm): 176/436 | active, responding nematodes per total examined (viable/total), Replication 4 (100 ppm): 150/464 | active, responding nematodes per total examined (viable/total), Total (100 ppm): 704/1798 | Control % (1000 ppm): 92.7% | active, responding nematodes per total examined (viable/total), Mean (1000 ppm): 33/452 | active, responding nematodes per total examined (viable/total), Replication 1 (1000 ppm): 25/449 | active, responding nematodes per total examined (viable/total), Replication 2 (1000 ppm): 39/444 | active, responding nematodes per total examined (viable/total), Replication 3 (1000 ppm): 40/454 | active, responding nematodes per total examined (viable/total), Replication 4 (1000 ppm): 27/460 | active, responding nematodes per total examined (viable/total), Total (1000 ppm): 131/1807
